From PubChem BioAssay (NCI)
Where “and” joins values, the source holds several entries; their conditions need not be identical. Equal values may be shown once.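 Results reflect a 48-hour exposure of cells in 96-well plates to compound at five concentrations. GI50 marks 50% less growth. TGI is the concentration that stops growth completely.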

Key:
Test in all cases: DTP human tumour cell line panel, 48 h
A549 NSCLC = test system: A549 NSCLC
HCT-116 colon = test system: HCT-116 colon
KM12 colon = test system: KM12 colon
LOX IMVI melanoma = test system: LOX IMVI melanoma
NCI-H522 lung = test system: NCI-H522 lung
RXF 393 renal = test system: RXF 393 renal
SF-268 CNS = test system: SF-268 CNS
SF-539 CNS = test system: SF-539 CNS
SK-MEL-5 melanoma = test system: SK-MEL-5 melanoma
SNB-19 CNS = test system: SNB-19 CNS

CC(C)(C)OC(=O)NCCCCCCCCn1c2c(c3ccccc3c1=O)C(=O)c1ccccc1-2
GI50 (A549 NSCLC): > 50 µM | TGI (A549 NSCLC): > 50 µM | GI50 (HCT-116 colon): 26.8 µM | TGI (HCT-116 colon): > 50 µM | GI50 (KM12 colon): > 40.4 µM | TGI (KM12 colon): > 50 µM | GI50 (LOX IMVI melanoma): > 32 µM | TGI (LOX IMVI melanoma): > 50 µM | GI50 (NCI-H522 lung): 13.5 µM | TGI (NCI-H522 lung): > 43.6 µM | GI50 (RXF 393 renal): 8.49 µM | TGI (RXF 393 renal): 24.5 µM | GI50 (SF-268 CNS): 19.5 µM | TGI (SF-268 CNS): > 50 µM | GI50 (SF-539 CNS): 9.64 µM | TGI (SF-539 CNS): 29.6 µM | GI50 (SK-MEL-5 melanoma): > 40 µM | TGI (SK-MEL-5 melanoma): > 50 µM | GI50 (SNB-19 CNS): 14.9 µM | TGI (SNB-19 CNS): > 50 µM

FC(F)(F)c1ccc(C=NC23CC4CC(CC(C4)C2)C3)cc1
TGI (A549 NSCLC): > 100 µM | TGI (HCT-116 colon): > 100 µM | TGI (KM12 colon): > 100 µM | TGI (LOX IMVI melanoma): > 100 µM | TGI (NCI-H522 lung): > 100 µM | TGI (RXF 393 renal): > 100 µM | TGI (SF-268 CNS): > 100 µM | TGI (SF-539 CNS): > 100 µM | TGI (SK-MEL-5 melanoma): > 100 µM | TGI (SNB-19 CNS): > 100 µM

COc1cc(-c2oc3c(OC)c(OC)cc(O)c3c(=O)c2OC)ccc1O
TGI (A549 NSCLC): > 50 µM | TGI (HCT-116 colon): > 100 µM | GI50 (KM12 colon): > 100 µM and 19 µM | TGI (KM12 colon): > 100 µM | GI50 (LOX IMVI melanoma): 1.88 µM and 7.95 µM | TGI (LOX IMVI melanoma): > 100 µM and 36.3 µM | TGI (NCI-H522 lung): 31.3 µM and > 50 µM | TGI (RXF 393 renal): > 100 µM | GI50 (SF-268 CNS): 34.4 µM and 15.3 µM | TGI (SF-268 CNS): > 100 µM | TGI (SF-539 CNS): > 100 µM and 49.2 µM | GI50 (SK-MEL-5 melanoma): 2.37 µM and 9.11 µM | TGI (SK-MEL-5 melanoma): > 100 µM and 37.7 µM | TGI (SNB-19 CNS): > 100 µM

C#CCN1CCN(C(=S)N/N=C(\C)c2ccccn2)CC1
GI50 (A549 NSCLC): 0.273 µM | TGI (A549 NSCLC): 8.09 µM and 2.16 µM | TGI (HCT-116 colon): 1.22 µM | GI50 (KM12 colon): 0.4 µM | TGI (KM12 colon): 4.6 µM and 6.33 µM | GI50 (LOX IMVI melanoma): 1.6 µM | TGI (LOX IMVI melanoma): 6.8 µM | GI50 (NCI-H522 lung): < 0.0292 µM | TGI (NCI-H522 lung): 6.52 µM and 2.27 µM | GI50 (RXF 393 renal): 3.95 µM | TGI (RXF 393 renal): 5.46 µM and 3.48 µM | TGI (SF-268 CNS): 16.5 µM | TGI (SF-539 CNS): 5.78 µM and 4.56 µM | TGI (SK-MEL-5 melanoma): 5.05 µM and 2.86 µM | GI50 (SNB-19 CNS): 4.53 µM | TGI (SNB-19 CNS): 17.2 µM

CC(=O)OCC1OC(OC2CC3C(C)(C)C(OC(C)=O)CC[C@]3(C)C3CCC45CC4(CC[C@H]5C(C)CC(O)C4OC4(C)C)[C@]23C)C(O)C(O)C1O (stereo partly drawn)
GI50 (A549 NSCLC): 4.26 µM | TGI (A549 NSCLC): 8.37 µM and 15.2 µM | GI50 (HCT-116 colon): 2.14 µM | TGI (HCT-116 colon): 3.46 µM and 4.42 µM | GI50 (KM12 colon): 1.56 µM | TGI (KM12 colon): 3.82 µM and 3.15 µM | GI50 (LOX IMVI melanoma): 1.25 µM | TGI (LOX IMVI melanoma): 3.72 µM and 2.58 µM | GI50 (NCI-H522 lung): 1.91 µM | TGI (NCI-H522 lung): 5.33 µM and 3.91 µM | TGI (RXF 393 renal): 4 µM | GI50 (SF-268 CNS): 3.67 µM | TGI (SF-268 CNS): 9.14 µM and 14.5 µM | GI50 (SF-539 CNS): 2.47 µM | TGI (SF-539 CNS): 8.92 µM and 6.62 µM | TGI (SK-MEL-5 melanoma): 5.79 µM | GI50 (SNB-19 CNS): 4.97 µM | TGI (SNB-19 CNS): 12.4 µM and 17.6 µM

COc1cc(NN=C(c2ccc(O)cc2)c2ccc(O)cc2)c([N+](=O)[O-])cc1[N+](=O)[O-]
GI50 (A549 NSCLC): 7.59 µM | TGI (A549 NSCLC): 33.7 µM | GI50 (HCT-116 colon): 9.33 µM | TGI (HCT-116 colon): 21.8 µM | GI50 (KM12 colon): 4.86 µM | TGI (KM12 colon): 25.7 µM | GI50 (LOX IMVI melanoma): 3.76 µM | TGI (LOX IMVI melanoma): 18.6 µM | GI50 (NCI-H522 lung): 8.86 µM | TGI (NCI-H522 lung): 29.9 µM | GI50 (RXF 393 renal): 8.05 µM | TGI (RXF 393 renal): 22.9 µM | GI50 (SF-268 CNS): 6.64 µM | TGI (SF-268 CNS): 25.5 µM | GI50 (SF-539 CNS): 13 µM | TGI (SF-539 CNS): 27.7 µM | GI50 (SK-MEL-5 melanoma): 6.24 µM | TGI (SK-MEL-5 melanoma): 20.6 µM | GI50 (SNB-19 CNS): 10.7 µM | TGI (SNB-19 CNS): 23.3 µM

COc1cc2c3c(n(CCCN)c(=O)c2cc1OC)-c1ccc(F)cc1C3=O
GI50 (A549 NSCLC): 4.94 µM | TGI (A549 NSCLC): 21.4 µM | GI50 (HCT-116 colon): 1.19 µM | TGI (HCT-116 colon): 2.46 µM | GI50 (KM12 colon): 5.95 µM | TGI (KM12 colon): 20.3 µM | GI50 (LOX IMVI melanoma): 0.955 µM | TGI (LOX IMVI melanoma): 4.68 µM | GI50 (NCI-H522 lung): 2.35 µM | TGI (NCI-H522 lung): 20.3 µM | GI50 (RXF 393 renal): 7.64 µM | TGI (RXF 393 renal): 26.6 µM | GI50 (SF-268 CNS): 3.08 µM | TGI (SF-268 CNS): 20.3 µM | GI50 (SF-539 CNS): 1.28 µM | TGI (SF-539 CNS): 3.17 µM | GI50 (SK-MEL-5 melanoma): 1.29 µM | TGI (SK-MEL-5 melanoma): 6.06 µM | GI50 (SNB-19 CNS): 1.47 µM | TGI (SNB-19 CNS): 15.9 µM
